# Experimental data from patent US20240358692A1, “TREATMENT OF SCLERODERMA” (Aisa Pharma, Inc., priority 2023, published 2024).
# Test system: participants with SSc-RP
# Experiment: Average duration of weekly RP attacks (minutes), patient diary
# Assay type: in vivo, human
# Text: The absolute change in average duration of weekly RP attacks from baseline to the end of each dosing period was and will be a secondary outcome variable. The sponsor-developed participant-informed diary was and will be used to record data. Average duration of weekly RP attacks is defined as the total duration of RP attacks divided by total number of RP attacks within the last 7 days of each dosing period. Total duration of RP attacks during the last 7 days of screening period divided by the total number of RP attacks will be used as baseline for the analysis of all periods. The variable will be calculated similar to frequency data as before.
# [1] = Cilnidipine 20 mg, Excluding Outliers, ITT Population - Part A
# [2] = Cilnidipine 20 mg, Excluding Outliers, by Baseline RCS, first RCS subgroup of table (not named), ITT Population - Part A
# [3] = Cilnidipine 20 mg, by Baseline RCS, first RCS subgroup of table (not named), ITT Population - Part A
# [4] = Cilnidipine 20 mg, by Baseline RCS, first subgroup of table, ITT Population - Part A
# [5] = Pooled Cilnidipine 10 mg and Cilnidipine 10 mg + Tadalafil 5 mg, Excluding Outliers, ITT Population - Part A
# [6] = Pooled Cilnidipine 10 mg and Cilnidipine 10 mg + Tadalafil 5 mg, ITT Population - Part A
# [7] = Pooled Cilnidipine 10 mg and Cilnidipine 10 mg + Tadalafil 5 mg, by Baseline RCS, first subgroup of table, ITT Population - Part A
# [8] = Pooled Cilnidipine 10 mg and Cilnidipine 10 mg + Tadalafil 5 mg, by Baseline RCS, second subgroup of table, ITT Population - Part A
# [9] = Pooled Cilnidipine 20 mg and Cilnidipine 20 mg + Tadalafil 5 mg, Excluding Outliers, ITT Population - Part A
structure (smiles),measurement,setting,value
COCCOC(=O)C1=C(C)NC(C)=C(C(=O)OC/C=C/c2ccccc2)C1c1cccc([N+](=O)[O-])c1 (centres unmarked) [Cilnidipine],"Average Duration of weekly symptomatic RP attacks, Mean","Cilnidipine 10 mg, last 7 days of dosing period, ITT Part A",31.64 min
same,Duration (change),Cilnidipine 20 mg (n = 3),−20%
same,"Average Duration of Weekly RP Attacks (All Attacks), Change from Baseline, Mean",[1],-1.09 min
same,"Average Duration of Weekly RP Attacks (All Attacks), Change from Baseline, Median",[1],-1.09 min
same,"Average Duration of Weekly RP Attacks (All Attacks), Percent Change from Baseline, Mean",[1],−24.97%
same,"Average Duration of Weekly RP Attacks (All Attacks), Percent Change from Baseline, Median",[1],−24.97%
same,"Average Duration of weekly symptomatic RP attacks, Mean",[1],16.73 min
same,"Average Duration of weekly symptomatic RP attacks, Median",[1],16.73 min
same,"Change from Baseline in average duration of weekly symptomatic RP attacks, Mean",[1],-3.13 min
same,"Change from Baseline in average duration of weekly symptomatic RP attacks, Median",[1],-3.13 min
same,"Percent Change from Baseline in average duration of weekly symptomatic RP attacks, Mean",[1],−31.05%
same,"Percent Change from Baseline in average duration of weekly symptomatic RP attacks, Median",[1],−31.05%
same,"Average Duration of weekly symptomatic RP attacks, Mean",[2],16.73 min
same,"Average Duration of weekly symptomatic RP attacks, Median",[2],16.73 min
same,"Change from Baseline in average duration of weekly symptomatic RP attacks, Mean",[2],-3.13 min
same,"Change from Baseline in average duration of weekly symptomatic RP attacks, Median",[2],-3.13 min
same,"Percent Change from Baseline in average duration of weekly symptomatic RP attacks, Mean",[2],−31.05%
same,"Percent Change from Baseline in average duration of weekly symptomatic RP attacks, Median",[2],−31.05%
same,"Average Duration of Weekly Symptomatic RP Attacks Change from Baseline, Mean","Cilnidipine 20 mg, ITT Part A",-3.13 min
same,"Average Duration of Weekly Symptomatic RP Attacks Change from Baseline, Median","Cilnidipine 20 mg, ITT Part A",-3.13 min
same,"Average Duration of Weekly Symptomatic RP Attacks Percent Change from Baseline, Mean","Cilnidipine 20 mg, ITT Part A",−31.05%
same,"Average Duration of Weekly Symptomatic RP Attacks Percent Change from Baseline, Median","Cilnidipine 20 mg, ITT Part A",−31.05%
same,"Average Duration of weekly symptomatic RP attacks, Mean",[3],16.73 min
same,"Average Duration of weekly symptomatic RP attacks, Median",[3],16.73 min
same,"Change from Baseline in average duration of weekly symptomatic RP attacks, Mean",[3],-3.13 min
same,"Change from Baseline in average duration of weekly symptomatic RP attacks, Median",[3],-3.13 min
same,"Percent Change from Baseline in average duration of weekly symptomatic RP attacks, Mean",[3],−31.05%
same,"Percent Change from Baseline in average duration of weekly symptomatic RP attacks, Median",[3],−31.05%
same,"Average Duration of Weekly RP Attacks (All Attacks), Mean",[4],16.73 min
same,"Average Duration of Weekly RP Attacks (All Attacks), Median",[4],16.73 min
same,"Average Duration of weekly symptomatic RP attacks, Median",[5],31.64 min
same,"Change from Baseline in average duration of weekly symptomatic RP attacks, Mean",[5],-12.11 min
same,"Change from Baseline in average duration of weekly symptomatic RP attacks, Median",[5],-16.74 min
same,"Percent Change from Baseline in average duration of weekly symptomatic RP attacks, Mean",[5],−22.40%
same,"Percent Change from Baseline in average duration of weekly symptomatic RP attacks, Median",[5],−33.84%
same,"Average Duration of Weekly Symptomatic RP Attacks Change from Baseline, Median","Pooled Cilnidipine 10 mg and Cilnidipine 10 mg + Tadalafil 5 mg, ITT Part A",-16.74 min
same,"Average Duration of Weekly RP Attacks (All Attacks), Change from Baseline, Median",[6],-8.48 min
same,"Average Duration of Weekly RP Attacks (All Attacks), Percent Change from Baseline, Median",[6],−21.20%
same,"Percent Change from Baseline in average duration of weekly symptomatic RP attacks, Mean","Pooled Cilnidipine 10 mg and Cilnidipine 10 mg + Tadalafil 5 mg, by Baseline RCS, first RCS subgroup of table (not named), ITT Population - Part A",−16.67%
same,"Average Duration of Weekly RP Attacks (All Attacks), Change from Baseline, Mean",[7],-4.13 min
same,"Average Duration of Weekly RP Attacks (All Attacks), Change from Baseline, Median",[7],-4.13 min
same,"Average Duration of Weekly RP Attacks (All Attacks), Mean",[7],24.76 min
same,"Average Duration of Weekly RP Attacks (All Attacks), Median",[7],24.76 min
same,"Average Duration of Weekly RP Attacks (All Attacks), Percent Change from Baseline, Mean",[7],−9.97%
same,"Average Duration of Weekly RP Attacks (All Attacks), Percent Change from Baseline, Median",[7],−9.97%
same,"Average Duration of Weekly RP Attacks (All Attacks), Change from Baseline, Mean",[8],-20.38 min
same,"Average Duration of Weekly RP Attacks (All Attacks), Change from Baseline, Median",[8],-20.38 min
same,"Average Duration of Weekly RP Attacks (All Attacks), Mean",[8],34.17 min
same,"Average Duration of Weekly RP Attacks (All Attacks), Median",[8],34.17 min
same,"Average Duration of Weekly RP Attacks (All Attacks), Percent Change from Baseline, Mean",[8],−37.36%
same,"Average Duration of Weekly RP Attacks (All Attacks), Percent Change from Baseline, Median",[8],−37.36%
same,"Average Duration of weekly symptomatic RP attacks, Mean","Pooled Cilnidipine 10 mg and Cilnidipine 10 mg + Tadalafil 5 mg, last 7 days of dosing period, ITT Part A",29.46 min
same,"Change from Baseline in average duration of weekly symptomatic RP attacks, Mean",[9],-7.51 min
same,"Change from Baseline in average duration of weekly symptomatic RP attacks, Median",[9],-3.55 min
same,"Percent Change from Baseline in average duration of weekly symptomatic RP attacks, Mean",[9],−16.40%
same,"Percent Change from Baseline in average duration of weekly symptomatic RP attacks, Median",[9],−7.30%
